Values joined by “and” are separate entries in the source; they are usually repeats but may differ in a detail not shown here. Equal values may be shown once.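 Dose response: 5 concentrations. Exposure: 48 h. Format: 96-well plates. Endpoint: linear interpolation; highest concentration if not reached. The concentration for 50% growth inhibition is given as GI50. The concentration for full growth arrest is given as TGI.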

Some test systems named below: CCRF-CEM leukemia; HT29 colon; MALME-3M melanoma; MOLT-4 leukemia; NCI-H226 lung; SN12C renal; SNB-19 CNS; T-47D breast; UACC-62 melanoma; UO-31 renal.
Assay in all cases: NCI-60 cell line screen, 48 h

Turning to `Clc1cccc(Cl)c1C1ON=C(c2ccccc2)N1C12CC3CC(CC(C3)C1)C2` (configuration not stated), the TGI is 56.5 µM in the experiment on CCRF-CEM leukemia; more than 100 µM in the experiment on HT29 colon; 47 µM in the experiment with MALME-3M melanoma; 46.3 µM with MOLT-4 leukemia; more than 100 µM in the experiment with NCI-H226 lung; more than 100 µM with SN12C renal. Besides, the TGI in the experiment on SNB-19 CNS, with T-47D breast, with UACC-62 melanoma and in the experiment with UO-31 renal was more than 100 µM throughout.

As to `C=C1C(=O)O[C@H]2[C@@H](O)[C@H](C)CCC/C(C)=C/CC[C@@]3(C)O[C@@H]3C[C@@H]12`, the TGI in the experiment on CCRF-CEM leukemia was found to be 11.7 µM; with HT29 colon, 28.7 µM; in the experiment on MALME-3M melanoma, 30.6 µM; in the experiment with NCI-H226 lung, 3.34 µM; in the experiment on SN12C renal it was 22.6 µM; with SNB-19 CNS, 37.5 µM. The TGI with T-47D breast was determined as 12.3 µM; in the experiment with UACC-62 melanoma, 22.6 µM; with UO-31 renal it was 18.2 µM.

As for `Cc1cc2nnn(C3CCCO3)c2cc1C` (configuration not stated), the TGI with CCRF-CEM leukemia, in the experiment on HT29 colon, in the experiment on MALME-3M melanoma, with MOLT-4 leukemia, in the experiment with NCI-H226 lung and with SN12C renal was more than 100 µM each time. In addition, the TGI with T-47D breast and in the experiment with UACC-62 melanoma was more than 100 µM throughout.

As to `CN(C)CCCN1C(=O)N(CCCN(C)C)c2c3cc(O)ccc3nc3c([N+](=O)[O-])ccc1c23`, the TGI in the experiment with HT29 colon turned out to be 27.2 µM; in the experiment with MALME-3M melanoma, 33.9 µM; in the experiment on NCI-H226 lung, 61.7 µM; in the experiment with SN12C renal, 49.1 µM; in the experiment with SNB-19 CNS, 23.8 µM; in the experiment on T-47D breast it was 80.2 µM. For the same compound, the figures for the TGI with UACC-62 melanoma and in the experiment on UO-31 renal were 27.3 µM and 63.6 µM, respectively.

In the case of `Nc1ncnc2c(C3OC(CO)C(O)C3O)c[nH]c12` (configuration not stated), the TGI in the experiment on CCRF-CEM leukemia was 0.0988 µM and < 0.0135 µM; in the experiment with HT29 colon, 0.343 µM and 1.21 µM; in the experiment with MALME-3M melanoma, 0.0868 µM and 0.0571 µM; in the experiment with NCI-H226 lung, 0.271 µM and 0.159 µM; in the experiment on SN12C renal, 0.0946 µM and 0.537 µM; in the experiment with SNB-19 CNS, 8.69 µM. The TGI is 0.0758 µM and 0.0275 µM in the experiment with T-47D breast; 0.0496 µM and 0.0377 µM with UACC-62 melanoma; 0.118 µM and 0.258 µM with UO-31 renal. Besides, the GI50 in the experiment with MALME-3M melanoma was 0.011 µM; with NCI-H226 lung it was 0.0189 µM; in the experiment with UACC-62 melanoma, 0.0101 µM.

Regarding `c1csc(-c2csc(-c3cccs3)c2)c1`, the TGI was more than 100 µM in the experiment on CCRF-CEM leukemia; more than 100 µM with HT29 colon; more than 100 µM in the experiment on MALME-3M melanoma; 89.2 µM with MOLT-4 leukemia; more than 100 µM in the experiment with SN12C renal; more than 100 µM with SNB-19 CNS. Besides, the TGI in the experiment on T-47D breast, with UACC-62 melanoma and in the experiment on UO-31 renal was more than 100 µM in each case.

`CC[N+]1(C)CCC(O)(/C=C/c2ccc(Cl)c(Cl)c2)C(C(=O)/C=C/c2ccc(Cl)c(Cl)c2)C1` (configuration not stated): the TGI in the experiment on HT29 colon was 4.53 µM; in the experiment with MALME-3M melanoma it was 4.6 µM; in the experiment on MOLT-4 leukemia it was 5.17 µM; in the experiment on NCI-H226 lung, 14.6 µM; in the experiment with SN12C renal, 3.61 µM; with SNB-19 CNS it was 17.3 µM. Moreover, the TGI in the experiment with T-47D breast was 4.87 µM; in the experiment on UACC-62 melanoma it was 3.64 µM; with UO-31 renal, 3.67 µM.

In the case of `COc1ccc(C2=C(N)c3ccccc3C2=O)cc1`, the TGI in the experiment on CCRF-CEM leukemia, in the experiment on HT29 colon, in the experiment on MALME-3M melanoma, with MOLT-4 leukemia, with NCI-H226 lung and in the experiment on SN12C renal was more than 100 µM throughout. Also, the TGI in the experiment on SNB-19 CNS was 64.3 µM; with T-47D breast, more than 100 µM; in the experiment on UACC-62 melanoma it was more than 100 µM.

Consider `Cc1cc(=O)[nH]c(S(=O)(=O)NC(=S)Nc2ccc(Br)cc2)n1`, for which the TGI in the experiment on HT29 colon, with MALME-3M melanoma, in the experiment on MOLT-4 leukemia, in the experiment on NCI-H226 lung, with SN12C renal and in the experiment with SNB-19 CNS was more than 100 µM throughout. For the same compound, the TGI in the experiment with T-47D breast, in the experiment with UACC-62 melanoma and with UO-31 renal was more than 100 µM throughout.

Take `CC(C)(C)OC(=O)N[C@@H](Cc1ccccc1)C(=O)N1CC[C@@H](C(=O)N2[C@H]3CC4CC[C@@]3(CS2(=O)=O)C4(C)C)N1`: the TGI in the experiment on CCRF-CEM leukemia, in the experiment with HT29 colon, in the experiment on MOLT-4 leukemia, in the experiment on NCI-H226 lung, with SN12C renal and with SNB-19 CNS was more than 100 µM in each case. Besides, the TGI is 51.1 µM with T-47D breast and more than 100 µM in the experiment on UACC-62 melanoma.

Consider `O=C(n1c(=O)n(-c2ccc([N+](=O)[O-])cc2)c(=O)n1C(=O)C(Cl)(Cl)Cl)C(Cl)(Cl)Cl`, for which the TGI in the experiment on CCRF-CEM leukemia, in the experiment with HT29 colon, in the experiment on MALME-3M melanoma, in the experiment on NCI-H226 lung, in the experiment with SN12C renal and in the experiment with SNB-19 CNS was more than 100 µM each time. For the same compound, the TGI with T-47D breast, in the experiment with UACC-62 melanoma and with UO-31 renal was more than 100 µM throughout.

For the compound `Cc1cc(C(C)(C)C)c(OCCCN2CCOCC2)c(C(C)(C)C)c1`, the TGI in the experiment with CCRF-CEM leukemia came out at 33.2 µM; in the experiment on HT29 colon it was 32.7 µM; with MALME-3M melanoma it was 35 µM; in the experiment with MOLT-4 leukemia, 33.7 µM; in the experiment on SN12C renal, 33 µM; in the experiment on SNB-19 CNS, 32.1 µM. Further, the TGI with T-47D breast came out at 34.1 µM; with UACC-62 melanoma it was 29.8 µM; with UO-31 renal, 32.7 µM.

`O=[N+]([O-])c1ccc(-c2nc3ccccc3o2)cc1`: the TGI in the experiment with CCRF-CEM leukemia, in the experiment with MALME-3M melanoma, in the experiment with MOLT-4 leukemia, in the experiment on NCI-H226 lung, in the experiment with SN12C renal and with SNB-19 CNS was more than 100 µM each time. Moreover, the TGI in the experiment on T-47D breast, in the experiment with UACC-62 melanoma and in the experiment on UO-31 renal was more than 100 µM in each case.

Regarding `COc1cc(/C=C2\N=C(c3ccccc3)N(c3ccc(C(=O)c4ccccc4)cc3N3C(=O)/C(=C/c4cc(OC)c(OC)c(OC)c4)N=C3c3ccccc3)C2=O)cc(OC)c1OC`, the TGI with CCRF-CEM leukemia is 39.8 µM; with HT29 colon, 92 µM; in the experiment on MALME-3M melanoma it was 41.3 µM; in the experiment with MOLT-4 leukemia, 39.6 µM; in the experiment on SN12C renal, 89.1 µM; in the experiment with SNB-19 CNS, more than 100 µM. Also, the figures for the TGI with T-47D breast, with UACC-62 melanoma and in the experiment with UO-31 renal were 26.4 µM, 24.7 µM and 40.3 µM, respectively.

Values taken from PubChem BioAssay (NCI).
